Data set [1] concerns human renal clear cell carcinoma. Briefly: In vitro anticancer assay (MTT), RCC 768-O. The data set is classed as cell-based. Particulars: RCC 768-O cells, 48 hrs, mean ± spread, read-out: Anti-proliferative evaluation IC50, RCC 768-O. The gist of the method:
(§1)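 MTT viability assay read at 570 nm, with formazan dissolved in DMSO. Growth was expressed as percent of control, (Abtreated/Abcontrol)×100, using mean absorbance (n=3).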

The subject of data set [2] is human cervical epithelioid carcinoma (HeLa). Briefly: In vitro anticancer assay (MTT), HeLa. In kind it is cell-based. Particulars: HeLa cells, 48 hrs, mean ± spread, read-out: Anti-proliferative evaluation IC50, HeLa. Put shortly: as §1
In data set [3] the test system is oral squamous cell carcinoma (SAS). In words: In vitro anticancer assay (MTT), SAS. The data set is classed as cell-based. Particulars: SAS cells, 48 hrs, mean ± spread, read-out: Anti-proliferative evaluation IC50, SAS. The gist of the method: as §1
Data set [4] concerns hepatocellular carcinoma (SKHep1). In words: In vitro anticancer assay (MTT), SKHep1. In kind it is cell-based. Particulars: 48 hrs, mean ± spread, read-out: Anti-proliferative evaluation IC50, SKHep1. The gist of the method:
as §1

Data set [5] has as its system human stomach adenocarcinoma (AGS). Briefly: In vitro anticancer assay (MTT), AGS. The data set is classed as cell-based. Particulars: AGS cells, 48 hrs, mean ± spread, read-out: Anti-proliferative evaluation IC50, AGS. The gist of the method:
as §1

The test system of data set [6] is esophageal carcinoma (CE81T). Briefly: In vitro anticancer assay (MTT), CE81T. Particulars: CE81T cells, 48 hrs, mean ± spread, read-out: Anti-proliferative evaluation IC50, CE81T. In kind it is cell-based. The gist of the method: as §1
[7] abbreviates: Homo sapiens, SK-HEP1, SKHep1 cells.

In general, melting point refers to the temperature of the solid-liquid transition. In general, IC50 refers to the concentration at which inhibition is half-maximal.

Where a name gives a salt, the structure may show the parent alone. Read-outs that look alike come from different tables or passages of the source. Bounds are passed on as bounds.

In turn, `CON=C1c2ccccc2-c2c(N3CCNCC3)nc3ccccc3c21` (as salt: salt) [Compound 6j, 6-(Piperazin-1-yl)-11H-indeno[1,2-c]quinolin-11-one O-methyl oxime] had a melting point of 149 to 150 °C.

`COc1ccc2c(c1)C(=O)c1c-2cnc2ccccc12` [Compound 5d, 9-Methoxy-11H-indeno[1,2-c]quinolin-11-one] showed a melting point of 195 to 196 °C.

In turn, `COc1ccc2c(c1)C(=O)c1c-2c(O)nc2ccccc12` [Compound 5e, 6-Hydroxy-9-methoxy-11H-indeno[1,2-c]quinolin-11-one] showed a melting point of 316 to 317 °C.

With `COc1ccc2c(c1)C(=O)c1c-2c(N2CCCNCC2)nc2ccccc12` [Compound 5z], the IC50 was 10.2 ± 6.5 µM in data set [1]; 3 ± 1.3 µM in data set [2]; 10.2 ± 2.5 µM in data set [3]; 6.2 ± 0.7 µM in data set [4] (SKHep1 cells); 7.1 ± 1.1 µM in data set [5]; 4.9 ± 1.3 µM in data set [6].

On to `COc1ccc2c(c1)C(=O)c1c-2c(N2CCN(C(=O)CCNCCN)CC2)nc2ccccc12` [Compound 5zz], for which the concentration for half-maximal inhibition (IC50) in data set [1] is greater than 30 µM; in data set [2], 11.4 ± 0.4 µM; in data set [3], greater than 30 µM; in data set [4] (SKHep1 cells) it was 19 ± 3.2 µM; in data set [5], 9 ± 2 µM; in data set [6], greater than 30 µM.

For the compound `COc1ccc2c(c1)C(=NO)c1c-2c(OC)nc2ccccc12` [Compound 6e], the IC50 in data set [1] is greater than 30 µM; in data set [2], 8.4 ± 1.2 µM; in data set [3], 9.5 ± 2.1 µM; in data set [4] (SKHep1 cells), 8.7 ± 2.1 µM; in data set [5], 6.8 ± 1.4 µM; in data set [6], greater than 30 µM.

`ON=C1c2ccccc2-c2c(N3CCNCC3)nc3ccccc3c21` [Compound 6i]: the IC50 was 6.3 ± 1.3 µM in data set [1]; 5.1 ± 0.6 µM in data set [2]; 7.3 ± 1.5 µM in data set [3]; 4.6 ± 1.1 µM in data set [4] (SKHep1 cells); 7.6 ± 1.4 µM in data set [5]; 3.5 ± 2.7 µM in data set [6].

For the compound `CON=C1c2ccccc2-c2c(N3CCNCC3)nc3ccccc3c21` [Compound 6j, 6-(Piperazin-1-yl)-11H-indeno[1,2-c]quinolin-11-one O-methyl oxime], the concentration for half-maximal inhibition (IC50) amounted to 7.7 ± 0.5 µM in data set [1] (Homo sapiens); 6.2 ± 0.6 µM in data set [2] (Homo sapiens); 7.7 ± 1 µM in data set [3]; 6.1 ± 0.8 µM in data set [4] (setting [7]); 8.1 ± 2.1 µM in data set [5] (Homo sapiens); 0.4 µM in data set [6].

With `ON=C1c2cc(F)ccc2-c2c(N3CCNCC3)nc3ccccc3c21` [Compound 6k], the IC50 was 2.3 ± 0.6 µM in data set [1]; 1.7 ± 0.2 µM in data set [2]; 4.4 ± 1.4 µM in data set [3]; 0.9 ± 0.3 µM in data set [4] (SKHep1 cells); greater than 30 µM in data set [5]; 3.3 ± 1.8 µM in data set [6].

For `CON=C1c2cc(F)ccc2-c2c(N3CCNCC3)nc3ccccc3c21` [Compound 6l], the IC50 amounted to 7 ± 0.7 µM in data set [1]; 4.9 ± 0.6 µM in data set [2]; 7.9 ± 0.3 µM in data set [3]; 5.9 ± 1.1 µM in data set [4] (SKHep1 cells); 7.6 ± 3.4 µM in data set [5]; 3.4 ± 0.3 µM in data set [6].

Regarding `CON=C1c2cc(OC)ccc2-c2c(N3CCN(C(=O)CCN(C)C)CC3)nc3ccccc3c21` [Compound 6m], the half-maximal inhibitory concentration (IC50) is 5.3 ± 1.8 µM in data set [1]; 3.6 ± 1.6 µM in data set [2]; 7 ± 0.5 µM in data set [3]; 5 ± 0.8 µM in data set [4] (SKHep1 cells); 7.5 ± 1.1 µM in data set [5]; 3 ± 2 µM in data set [6].

Take `COc1ccc2c(c1)C(=NO)c1c-2c(N2CCN(C(=O)CCNCCN(C)C)CC2)nc2ccccc12` [Compound 6n, 3-[2-(Dimethylamino)ethylamino]-1-{4-[11-(hydroxyimino)-9-methoxy-11H-indeno[1,2-c]quinolin-6-yl]piperazin-1-yl}propan-1-one]: the 50% inhibitory concentration (IC50) in data set [1] (Homo sapiens) was 5.6 ± 1.6 µM; in data set [2] (Homo sapiens) it was greater than 30 µM; in data set [3], 7.3 ± 0.4 µM; in data set [4] (setting [7]), greater than 30 µM; in data set [5] (Homo sapiens), 7.4 ± 1.2 µM; in data set [6], greater than 30 µM.

Turning to `CON=C1c2cc(OC)ccc2-c2c(N3CCN(C(=O)CCNCCN(C)C)CC3)nc3ccccc3c21` [Compound 6o], the 50% inhibitory concentration (IC50) in data set [1] was greater than 30 µM; in data set [2] it was 11.5 ± 1.3 µM; in data set [3], 19.1 ± 2.2 µM; in data set [4] (SKHep1 cells), 11.6 ± 7.3 µM; in data set [5], greater than 30 µM; in data set [6] it was 4.8 ± 1.6 µM.

As to `COc1ccc2c(c1)C(=NO)c1c-2c(N2CCNCC2)nc2ccccc12` [Compound 6p, 9-Methoxy-6-(piperazin-1-yl)-11H-indeno[1,2-c]quinolin-11-one oxime], the half-maximal inhibitory concentration (IC50) came out at 1.2 ± 0.9 µM in data set [1] (Homo sapiens); 2.7 ± 1.2 µM in data set [2] (Homo sapiens); 6.1 ± 0.9 µM in data set [3]; 3.8 ± 1.3 µM in data set [4] (setting [7]); 1.7 ± 0.5 µM in data set [5] (Homo sapiens); 2.6 ± 0.9 µM in data set [6].

With `CON=C1c2cc(OC)ccc2-c2c(N3CCNCC3)nc3ccccc3c21` [Compound 6q], the IC50 was found to be 8.3 ± 1.3 µM in data set [1]; 10.6 ± 4.4 µM in data set [2]; 10.3 ± 0.5 µM in data set [3]; 9.3 ± 2.9 µM in data set [4] (SKHep1 cells); 5.2 ± 0.5 µM in data set [5]; 7.2 ± 3.1 µM in data set [6].

Regarding `COc1ccc2c(c1)C(=NOCCN(C)C)c1c-2c(N2CCNCC2)nc2ccccc12` [Compound 6r, 9-Methoxy-6-(piperazin-1-yl)-11H-indeno[1,2-c]quinolin-11-one O-2-(dimethylamino)ethyl oxime], the IC50 in data set [1] (Homo sapiens) was 2 ± 1.9 µM; in data set [2] (Homo sapiens), 0.5 ± 0.2 µM; in data set [3], 2.4 ± 1.2 µM; in data set [4] (setting [7]), 0.7 ± 0.2 µM; in data set [5] (Homo sapiens), 6.8 ± 2 µM; in data set [6], greater than 30 µM.

In the case of `COc1ccc2c(c1)C(=NOCCCN(C)C)c1c-2c(N2CCNCC2)nc2ccccc12` [Compound 6s, 9-Methoxy-6-(piperazin-1-yl)-11H-indeno[1,2-c]quinolin-11-one O-3-(dimethylamino)propyl oxime], the IC50 in data set [1] (Homo sapiens) was 4.9 ± 0.8 µM; in data set [2] (Homo sapiens) it was 0.6 ± 0.3 µM; in data set [3], 4.9 ± 0.6 µM; in data set [4] (setting [7]), 3 ± 2.8 µM; in data set [5] (Homo sapiens), 6.8 ± 1.8 µM; in data set [6], greater than 30 µM.

With `COc1ccc2c(c1)C(=NOCCCN)c1c-2c(N2CCNCC2)nc2ccccc12` [Compound 6t, 9-Methoxy-6-(piperazin-1-yl)-11H-indeno[1,2-c]quinolin-11-one O-3-aminopropyl oxime], the half-inhibitory concentration (IC50) in data set [1] (Homo sapiens) was 4.4 ± 1.4 µM; in data set [2] (Homo sapiens), 0.9 ± 0.4 µM; in data set [3], 6.3 ± 0.9 µM; in data set [4] (setting [7]), 3 ± 2.2 µM; in data set [5] (Homo sapiens), 5.9 ± 1.2 µM; in data set [6], 6.5 ± 0.6 µM.

`COc1ccc2c(c1)C(=NOCCN1CCCC1)c1c-2c(N2CCNCC2)nc2ccccc12` [Compound 6u, 9-Methoxy-6-(piperazin-1-yl)-11H-indeno[1,2-c]quinolin-11-one O-2-(pyrrolidin-1-yl)ethyl oxime]: the half-inhibitory concentration (IC50) in data set [1] (Homo sapiens) was determined as 2.6 ± 0.5 µM; in data set [2] (Homo sapiens), 0.6 ± 0.2 µM; in data set [3] it was 2.4 ± 1.3 µM; in data set [4] (setting [7]) it was 0.7 ± 0.3 µM; in data set [5] (Homo sapiens) it was 4.8 ± 1.3 µM; in data set [6] it was 2.9 ± 1.7 µM.

For `COc1ccc2c(c1)C(=NOCCN1CCCCC1)c1c-2c(N2CCNCC2)nc2ccccc12` [Compound 6v, 9-Methoxy-6-(piperazin-1-yl)-11H-indeno[1,2-c]quinolin-11-one O-2-(piperidin-1-yl)ethyl oxime], the half-maximal inhibitory concentration (IC50) is 4.5 ± 1.4 µM in data set [1] (Homo sapiens); 0.8 ± 0.3 µM in data set [2] (Homo sapiens); 5.8 ± 0.5 µM in data set [3]; 1.6 ± 0.5 µM in data set [4] (setting [7]); 7.1 ± 0.8 µM in data set [5] (Homo sapiens); greater than 30 µM in data set [6].

Consider `COc1ccc2c(c1)C(=NOCCN1CCOCC1)c1c-2c(N2CCNCC2)nc2ccccc12` [Compound 6w], for which the IC50 in data set [1] was 4.1 ± 1.9 µM; in data set [2], 0.8 ± 0.2 µM; in data set [3], 6.9 ± 1.3 µM; in data set [4] (SKHep1 cells), 1 ± 0.4 µM; in data set [5], 5.8 ± 1.9 µM; in data set [6], greater than 30 µM.

As for `COc1ccc2c(c1)C(=NOCc1ccccc1)c1c-2c(N2CCNCC2)nc2ccccc12` [Compound 6x], the half-inhibitory concentration (IC50) in data set [1] worked out at 7 ± 0.4 µM; in data set [2], 6.1 ± 0.3 µM; in data set [3], 7.6 ± 0.6 µM; in data set [4] (SKHep1 cells) it was 4.2 ± 1.8 µM; in data set [5], 6.1 ± 1.4 µM; in data set [6], 3.4 ± 2.3 µM.

Consider `COc1ccc2c(c1)C(=NOCC1CO1)c1c-2c(N2CCN(CC3CO3)CC2)nc2ccccc12` (stereo not drawn) [Compound 6y], for which the IC50 in data set [1] was 8.8 ± 2.2 µM; in data set [2], 0.5 ± 0.2 µM; in data set [3], 6.2 ± 0.9 µM; in data set [4] (SKHep1 cells), 1 ± 0.5 µM; in data set [5], 8.8 ± 4.1 µM; in data set [6] it was 2 ± 1.2 µM.

Take `COc1ccc2c(c1)C(=NOCC(O)CN(C)C)c1c-2c(N2CCN(CC(O)CN(C)C)CC2)nc2ccccc12` (stereo not drawn) [Compound 6z]: the IC50 in data set [1] amounted to 13.9 ± 10.5 µM; in data set [2] it was 1 ± 0.4 µM; in data set [3], 9 ± 2.7 µM; in data set [4] (SKHep1 cells), 2.5 ± 1.7 µM; in data set [5], 18.6 ± 6.2 µM; in data set [6] it was 9 ± 3.6 µM.

With `COc1cccc2c1C(=O)c1c(O)c3c(c(O)c1C2=O)C[C@@](O)(C(=O)CO)C[C@@H]3O[C@H]1C[C@H](N)[C@H](O)[C@H](C)O1` [Dox, doxorubicin hydrochloride, reference compound], the IC50 in data set [1] (Homo sapiens) was 2.2 ± 0.3 µM; in data set [2] (Homo sapiens), 0.4 ± 0.1 µM; in data set [3], 5.7 ± 0.3 µM; in data set [4] (setting [7]), less than 0.1 µM; in data set [5] (Homo sapiens) it was greater than 30 µM; in data set [6] it was 0.3 ± 0.1 µM.

Values taken from patent US7829567B2, “Imino-indeno[1,2-c] quinoline derivatives, their preparation processes, and pharmaceutical compositions comprising the same” (Kaohsiung Medical University, priority 2007, dated 2010).
